The source made the active and inactive calls. The calls were made as follows: active = viability on the fitted dose curve at most 10% of control; inactive = the rest.
Test system: LG0567-F671-PDC KRAS tumor spheroid viability
Test: Anticancer human tumor LG0567-F671-PDC patient-derived lung adenocarcinoma cell line growth inhibition [KRAS2]
Settings: spheroids with HUVEC and MSC; for IC50: curve of first compound; for viability, T/C: stronger effect = lower value
Method in brief: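 Combination screen of spheroid viability in tumor-cell co-cultures with endothelial (HUVEC) and mesenchymal stem cell stroma. Each agent was tested in half-log dilutions, topping at clinical Cmax or at 10 microM without a known Cmax.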

[1] = second compound 0.1 µM, first compound 0.000316 µM
[2] = second compound 0.1 µM, first compound 0.001 µM
[3] = second compound 0.1 µM, first compound 0.00316 µM
[4] = second compound 0.1 µM, first compound 0.01 µM
[5] = second compound 0.1 µM, first compound 0.0316 µM
[6] = second compound 0.316 µM, first compound 0.000316 µM
[7] = second compound 0.316 µM, first compound 0.001 µM
[8] = second compound 0.316 µM, first compound 0.00316 µM
[9] = second compound 0.316 µM, first compound 0.01 µM
[10] = second compound 0.316 µM, first compound 0.0316 µM
[11] = second compound 1 µM, first compound 0.000316 µM
[12] = second compound 1 µM, first compound 0.001 µM
[13] = second compound 1 µM, first compound 0.00316 µM
[14] = second compound 1 µM, first compound 0.01 µM
[15] = second compound 1 µM, first compound 0.0316 µM
[16] = second compound 3.16 µM, first compound 0.000316 µM
[17] = second compound 3.16 µM, first compound 0.001 µM
[18] = second compound 3.16 µM, first compound 0.00316 µM
[19] = second compound 3.16 µM, first compound 0.01 µM
[20] = second compound 3.16 µM, first compound 0.0316 µM
[21] = second compound 10 µM, first compound 0.000316 µM
[22] = second compound 10 µM, first compound 0.001 µM
[23] = second compound 10 µM, first compound 0.00316 µM
[24] = second compound 10 µM, first compound 0.01 µM
[25] = second compound 10 µM, first compound 0.0316 µM
[26] = second compound 0.1 µM, first compound 0.1 µM
[27] = second compound 0.1 µM, first compound 0.316 µM
[28] = second compound 0.1 µM, first compound 1 µM
[29] = second compound 0.1 µM, first compound 3.16 µM
[30] = second compound 0.316 µM, first compound 0.1 µM
[31] = second compound 0.316 µM, first compound 0.316 µM
[32] = second compound 0.316 µM, first compound 1 µM
[33] = second compound 0.316 µM, first compound 3.16 µM
[34] = second compound 3.16 µM, first compound 0.1 µM
[35] = second compound 3.16 µM, first compound 0.316 µM
[36] = second compound 3.16 µM, first compound 1 µM
[37] = second compound 3.16 µM, first compound 3.16 µM
[38] = second compound 10 µM, first compound 0.1 µM
[39] = second compound 10 µM, first compound 0.316 µM
[40] = second compound 10 µM, first compound 1 µM
[41] = second compound 10 µM, first compound 3.16 µM
[42] = second compound 1 µM, first compound 0.1 µM
[43] = second compound 0.1 µM, first compound 10 µM
[44] = second compound 0.316 µM, first compound 10 µM
[45] = second compound 1 µM, first compound 0.316 µM
[46] = second compound 1 µM, first compound 1 µM
[47] = second compound 1 µM, first compound 3.16 µM
[48] = second compound 1 µM, first compound 10 µM
[49] = second compound 3.16 µM, first compound 10 µM
[50] = second compound 10 µM, first compound 10 µM
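For IC50 in this document: drug exposure lasted seven days after spheroids formed for three days.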
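For viability, T/C in this document: drug exposure lasted seven days after spheroids formed for three days; 100% = DMSO vehicle control viability.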

CC(=O)Nc1cccc(-n2c(=O)n(C3CC3)c(=O)c3c(Nc4ccc(I)cc4F)n(C)c(=O)c(C)c32)c1 + CC1OCC2(CCN(c3cnc(Sc4ccnc(N)c4Cl)c(N)n3)CC2)C1N
IC50 (second compound 0.1 µM): < 0.1 nM
IC50 (second compound 0.316 µM): < 0.1 nM
IC50 (second compound 1 µM): < 0.1 nM
IC50 (second compound 3.16 µM): < 0.1 nM
IC50 (second compound 10 µM): < 0.1 nM
viability, T/C (second compound 0.1 µM, first compound 0.0001 µM): 53.7%
viability, T/C [1]: 44.6%
viability, T/C [2]: 49.4%
viability, T/C [3]: 44.7%
viability, T/C [4]: 22.7%
viability, T/C [5]: 7.91%
viability, T/C (second compound 0.316 µM, first compound 0.0001 µM): 37.1%
viability, T/C [6]: 31.2%
viability, T/C [7]: 25.6%
viability, T/C [8]: 21.9%
viability, T/C [9]: 14.9%
viability, T/C [10]: 7.83%
viability, T/C (second compound 1 µM, first compound 0.0001 µM): 22.4%
viability, T/C [11]: 21.8%
viability, T/C [12]: 17.6%
viability, T/C [13]: 8.6%
viability, T/C [14]: 6.42%
viability, T/C [15]: 3.01%
viability, T/C (second compound 3.16 µM, first compound 0.0001 µM): 14.7%
viability, T/C [16]: 8.03%
viability, T/C [17]: 2.89%
viability, T/C [18]: 1.92%
viability, T/C [19]: 1.41%
viability, T/C [20]: 3.95%
viability, T/C (second compound 10 µM, first compound 0.0001 µM): 5.94%
viability, T/C [21]: 2.29%
viability, T/C [22]: 2.96%
viability, T/C [23]: 1.63%
viability, T/C [24]: 1.31%
viability, T/C [25]: 2.49%

CC(=O)OC12COC1CC(O)C1(C)C(=O)C(O)C3=C(C)C(OC(=O)C(O)C(NC(=O)OC(C)(C)C)c4ccccc4)CC(O)(C(OC(=O)c4ccccc4)C21)C3(C)C (stereo not drawn) + CC1OCC2(CCN(c3cnc(Sc4ccnc(N)c4Cl)c(N)n3)CC2)C1N
IC50 (second compound 0.1 µM): < 10 nM
IC50 (second compound 0.316 µM): < 10 nM
IC50 (second compound 3.16 µM): < 10 nM
IC50 (second compound 10 µM): < 10 nM
viability, T/C [4]: 41.6%
viability, T/C [5]: 39.4%
viability, T/C [26]: 38.7%
viability, T/C [27]: 40.4%
viability, T/C [28]: 48%
viability, T/C [29]: 38.6%
viability, T/C [9]: 26.7%
viability, T/C [10]: 26.7%
viability, T/C [30]: 24.9%
viability, T/C [31]: 22.1%
viability, T/C [32]: 28.1%
viability, T/C [33]: 20.6%
viability, T/C [19]: 14.7%
viability, T/C [20]: 12.3%
viability, T/C [34]: 10.3%
viability, T/C [35]: 10.6%
viability, T/C [36]: 11.9%
viability, T/C [37]: 10.3%
viability, T/C [24]: 14.9%
viability, T/C [25]: 9.36%
viability, T/C [38]: 11.2%
viability, T/C [39]: 9.93%
viability, T/C [40]: 12.9%
viability, T/C [41]: 9.85%

CN(C)C/C=C/C(=O)Nc1cc2c(Nc3ccc(F)c(Cl)c3)ncnc2cc1O[C@H]1CCOC1 + CC1OCC2(CCN(c3cnc(Sc4ccnc(N)c4Cl)c(N)n3)CC2)C1N
IC50 (second compound 0.1 µM): 4.99 nM
IC50 (second compound 0.316 µM): < 0.316 nM
IC50 (second compound 1 µM): > 100 nM
IC50 (second compound 3.16 µM): < 0.316 nM
IC50 (second compound 10 µM): < 0.316 nM
viability, T/C [1]: 55.9%
viability, T/C [2]: 51.9%
viability, T/C [3]: 50.8%
viability, T/C [4]: 52.2%
viability, T/C [5]: 43.3%
viability, T/C [26]: 49.4%
viability, T/C [6]: 44.1%
viability, T/C [7]: 40.5%
viability, T/C [8]: 43.1%
viability, T/C [9]: 30.6%
viability, T/C [10]: 29.9%
viability, T/C [30]: 32.7%
viability, T/C [11]: 106%
viability, T/C [12]: 84.5%
viability, T/C [13]: 96.2%
viability, T/C [14]: 78.9%
viability, T/C [15]: 59%
viability, T/C [42]: 69.3%
viability, T/C [16]: 19.9%
viability, T/C [17]: 15.2%
viability, T/C [18]: 16.2%
viability, T/C [19]: 21.2%
viability, T/C [20]: 18.4%
viability, T/C [34]: 21.6%
outcome [21]: inactive
outcome [22]: inactive
viability, T/C [23]: 15.9%
outcome [24]: inactive
viability, T/C [25]: 13.4%
viability, T/C [38]: 12.9%

COC(=O)c1ccc2c(C(=Nc3ccc(N(C)C(=O)CN4CCN(C)CC4)cc3)c3ccccc3)c(O)[nH]c2c1 + CC1OCC2(CCN(c3cnc(Sc4ccnc(N)c4Cl)c(N)n3)CC2)C1N
IC50 (second compound 0.1 µM): > 10000 nM
IC50 (second compound 0.316 µM): < 31.6 nM
IC50 (second compound 1 µM): < 31.6 nM
IC50 (second compound 3.16 µM): < 31.6 nM
IC50 (second compound 10 µM): < 31.6 nM
viability, T/C [5]: 55.5%
viability, T/C [26]: 50.5%
viability, T/C [27]: 47.3%
viability, T/C [28]: 57.5%
viability, T/C [29]: 57.8%
viability, T/C [43]: 51.8%
viability, T/C [10]: 29.1%
viability, T/C [30]: 29.2%
viability, T/C [31]: 26.4%
viability, T/C [32]: 39.5%
viability, T/C [33]: 36.3%
viability, T/C [44]: 37.3%
viability, T/C [15]: 25.5%
viability, T/C [42]: 23.4%
viability, T/C [45]: 23.6%
viability, T/C [46]: 30.6%
viability, T/C [47]: 38.2%
viability, T/C [48]: 34%
viability, T/C [20]: 19.5%
viability, T/C [34]: 20.1%
viability, T/C [35]: 19%
viability, T/C [36]: 24.1%
viability, T/C [37]: 32.5%
viability, T/C [49]: 27.8%
viability, T/C [25]: 13.7%
viability, T/C [38]: 13.9%
viability, T/C [39]: 13.2%
viability, T/C [40]: 19.5%
viability, T/C [41]: 23.6%
viability, T/C [50]: 26.7%

O=C(c1cc(Cc2n[nH]c(=O)c3ccccc23)ccc1F)N1CCN(C(=O)C2CC2)CC1 + CC1OCC2(CCN(c3cnc(Sc4ccnc(N)c4Cl)c(N)n3)CC2)C1N
IC50 (second compound 0.1 µM): > 10000 nM
IC50 (second compound 0.316 µM): < 31.6 nM
IC50 (second compound 1 µM): < 31.6 nM
IC50 (second compound 3.16 µM): < 31.6 nM
IC50 (second compound 10 µM): < 31.6 nM
viability, T/C [5]: 63.8%
viability, T/C [26]: 54%
viability, T/C [27]: 60.3%
viability, T/C [28]: 59.7%
viability, T/C [29]: 54.4%
viability, T/C [43]: 53.2%
viability, T/C [10]: 37.9%
viability, T/C [30]: 35.5%
viability, T/C [31]: 32.3%
viability, T/C [32]: 32.9%
viability, T/C [33]: 33.5%
viability, T/C [44]: 38.2%
outcome [15]: inactive
viability, T/C [42]: 40%
viability, T/C [45]: 35.5%
viability, T/C [46]: 29.8%
viability, T/C [47]: 32.8%
viability, T/C [48]: 28.6%
viability, T/C [20]: 20.9%
viability, T/C [34]: 20.8%
viability, T/C [35]: 24.8%
viability, T/C [36]: 26%
viability, T/C [37]: 23.9%
viability, T/C [49]: 23.8%
viability, T/C [25]: 10.2%
viability, T/C [38]: 11%
viability, T/C [39]: 12.2%
viability, T/C [40]: 11.8%
viability, T/C [41]: 14.2%
viability, T/C [50]: 17.4%

Source: PubChem BioAssay AID1963856 (Molecular Pharmacology Branch, DTP, NCI, 2024)
